In article PMC6522930, “Design, synthesis and biological activity evaluation of a new class of 2,4-thiazolidinedione compounds as insulin enhancers” (Journal of Enzyme Inhibition and Medicinal Chemistry, 2019):
Each block holds one compound with its values, some of them ahead of it.

What was measured:
PPARα = target: T1, PPARα (Homo sapiens, UniProt Q07869); assay: In vitro activation of PPARα (cells containing PPAR, EC50); assay type: cell-based; conditions: n ≥ 8; 24 h; read-out: EC50 ± SD PPARα
T1 construct: expressed in transfected cells
T1 sequence (Q07869 1-468): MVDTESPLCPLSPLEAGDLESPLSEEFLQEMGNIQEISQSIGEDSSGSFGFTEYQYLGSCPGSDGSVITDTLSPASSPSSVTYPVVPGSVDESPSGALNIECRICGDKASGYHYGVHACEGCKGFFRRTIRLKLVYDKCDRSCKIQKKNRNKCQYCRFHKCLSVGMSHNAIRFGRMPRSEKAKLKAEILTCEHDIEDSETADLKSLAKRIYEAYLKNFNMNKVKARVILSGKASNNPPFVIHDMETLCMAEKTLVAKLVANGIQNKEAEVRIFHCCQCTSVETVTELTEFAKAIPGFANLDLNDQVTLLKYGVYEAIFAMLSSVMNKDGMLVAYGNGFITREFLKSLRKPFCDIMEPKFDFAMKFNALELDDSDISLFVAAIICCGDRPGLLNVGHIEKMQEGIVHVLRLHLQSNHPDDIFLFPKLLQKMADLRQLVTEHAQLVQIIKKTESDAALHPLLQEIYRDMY
Method: (§1) According to the literature, the cells containing PPAR (α, β and γ) were obtained and transfected into 96-well plates the day before for cells culture. Transfection was performed according to the instructions of human PPAR enzyme-linked immunoassay. […] After 24 h, the drugs were added, and 20 μl of MTT was added to each well for another 6 h, and the cell liquid was collected by removing the culture medium, and 150 μl of DMSO was added to each hole. And the absorbance value (A) of each hole was measured under the wavelength of 460 nm.

[1] = Lipid–water partition coefficient (log p); assay type: physicochemical
Description: (§2) Drug in vitro experiment was one of the basic contents to evaluate drugs activity, and it was a necessary approach to research drugs. Drugs’ efficacy was often affected by some physical and chemical properties of compounds, such as lipid–water partition coefficient (log p), and dissociation degree (pKa). […] In Table 1, we could find that target compounds were fat-soluble. The fat-soluble compounds were favourable for drugs absorption, and drugs were easy to enter the cells. […] The pKa will affect the absorption and delivery of the drugs, different environmental (acid and alkalinity) medicine may be different, sometimes exists in the form of ions, sometimes exists in the form of molecules. Usually in the form of ion drugs has no effect. Therefore, it was necessary to study the dissociation degree (pKa) of drugs to study the pharmacodynamics. […] After the physical and chemical properties were studied, the biological activity was studied. […] After that, the target compounds 6a, 6e, 6f, 6g and 6i had good biological activity and were preliminarily screened out for further study on PPARγ receptor agonist activity (Figure 5).

[2] = Dissociation degree (pKa); assay type: physicochemical
Description: as §2

PPARγ = target: T2, PPARγ (Homo sapiens, UniProt P37231); assay: In vitro activation of PPARγ (cells containing PPAR, EC50); assay type: cell-based; conditions: n ≥ 8; 24 h; read-out: EC50 ± SD PPARγ
T2 construct: expressed in transfected cells
T2 sequence (P37231 1-505): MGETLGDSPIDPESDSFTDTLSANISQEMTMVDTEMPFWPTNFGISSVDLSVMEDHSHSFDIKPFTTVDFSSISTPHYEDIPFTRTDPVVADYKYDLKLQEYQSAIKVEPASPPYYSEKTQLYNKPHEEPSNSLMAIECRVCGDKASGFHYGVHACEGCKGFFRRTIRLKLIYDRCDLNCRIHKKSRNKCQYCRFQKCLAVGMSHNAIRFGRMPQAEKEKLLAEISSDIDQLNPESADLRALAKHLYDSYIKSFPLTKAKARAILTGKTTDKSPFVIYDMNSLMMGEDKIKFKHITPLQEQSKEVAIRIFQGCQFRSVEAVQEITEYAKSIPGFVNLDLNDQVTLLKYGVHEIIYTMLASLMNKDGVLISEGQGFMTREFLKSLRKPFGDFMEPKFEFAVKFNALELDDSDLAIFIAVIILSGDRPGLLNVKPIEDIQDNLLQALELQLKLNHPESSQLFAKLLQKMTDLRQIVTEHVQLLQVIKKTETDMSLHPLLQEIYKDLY
Method: as §1

HUVEC cells = assay: Cell survival experiment (cytotoxicity); assay type: cell-based; conditions: for Cytotoxic effect (in words): 10^−3–10^−2 mol L^−1; for Cell survival rate: HUVEC cells
Method: (§3) (1) Glucose tolerance test: The healthy mice (20 ± 2 g) were selected. After 1 week of acclimation, mice with no body surface damage, good general condition and flexible reaction were selected for the experiment. The test compounds were dissolved with DMSO, and were given a dose volume of 0.2 ml 10 g^−1, and a dose of 10 mg kg^−1, and given by gavage (oral) once a day. […] The mice were given the drug for 10 d, and after the last dose, the mice fasted for 12 h. The next day, blood was collected from the tail vein of the mice before and after the sugar load for 1 h and 2 h, and the blood glucose level of the mice before and after the sugar load was measured by the glucometer. […] The 12 h of fasting after the last administration, blood was taken from the orbital venous plexus (used to measure the blood glucose level after fasting). Each group was immediately given a subcutaneous injection of 0.2 μg kg^−1 of insulin. After 1 h and 2 h of injection, blood was taken again. (3) Cell survival experiment: The HUVEC cells were inoculated on the 96-well plate at the initial concentration of 3 × 10^3 cells/holes, and 100 μl RPMI 1640 medium were added to each hole. At 5% CO2 and 37 °C cell cultivation in 24 h, every pore solution in different concentrations. […] And determine the hole under 460 nm wavelength absorbance value (A).

healthy mice [3] = assay: Insulin tolerance test (blood glucose under insulin load); assay type: in vivo; conditions: for Effect in insulin tolerance test (in words): 10 mg kg^−1 d^−1; for Blood glucose levels 1 h / Blood glucose levels 2 h / Blood glucose levels 0 h: 10 mg kg^−1 d^−1 for 15 d; for Blood glucose levels 1 h: 1 h after s.c. insulin 0.2 μg kg^−1; for Blood glucose levels 2 h: 2 h after s.c. insulin 0.2 μg kg^−1; for Blood glucose levels 0 h: fasted 12 h, before insulin
Method: as §3

healthy mice [4] = assay: Oral glucose tolerance test; assay type: in vivo; conditions: for Blood glucose levels 1 h / Blood glucose levels 2 h / Blood glucose levels 0 h: 10 mg kg^−1 d^−1 oral for 10 d; for Blood glucose levels 1 h: 1 h after sugar load; for Blood glucose levels 2 h: 2 h after sugar load; for Blood glucose levels 0 h: fasted 12 h, before sugar load; for Effect in glucose tolerance test (in words): 10 mg kg^−1 d^−1 oral, 10 d
Method: In vivo experiments, glucose tolerance test, insulin tolerance test, cell survival experiment and acute toxicity were used as the test indicators (Tables 2, [3] and [4]). In Table 2, we chose dose 10 mg kg^−1 d^−1 and used oral administration. […] The mice were given the drug for 10 d, blood was collected from the tail vein of the mice before and after the sugar load for 1 h and 2 h, and the blood glucose level of the mice before and after the sugar load was measured by the glucometer.
as §3

[5] = Acute toxicity test (LD50); assay type: in vivo; conditions: oral administration; n ≥ 3

EC50 (PPARα): 13000 ± 1560 nM | logP [1]: 1.92 | pKa [2]: 10 | EC50 (PPARγ): 450 ± 210 nM
SMILES: O=C1NC(=O)C(Cc2ccc(OCCNC(=O)c3ccccn3)cc2)S1 (stereo not drawn) [Compound 6c, N-(2-(4-((2,4-dioxothiazolidin-5-yl)methyl)phenoxy)ethyl) picolinamide]

SMILES: Cc1ccc(C(=O)NCCOc2ccc(CC3SC(=O)NC3=O)cc2)cc1 (stereo not drawn) [Compound 6e, N-(2-(4-((2,4-dioxothiazolidin-5-yl)methyl)phenoxy)ethyl)-4-methylbenzamide]
logP [1]: 3.26 | Cytotoxic effect (in words) (HUVEC cells): no obvious cytotoxic effect | Cell survival rate (HUVEC cells; 10^−2 mol l^−1): 94.3 ± 1.02% | Cell survival rate (HUVEC cells; 10^−3 mol l^−1): 99.1 ± 0.08% | Cell survival rate (HUVEC cells; 10^−4 mol l^−1): 100% | Cell survival rate (HUVEC cells; 10^−5 mol l^−1): 100% | Cell survival rate (HUVEC cells; 10^−6 mol l^−1): 100% | Effect in insulin tolerance test (in words) (healthy mice [3]): good resistance activation to insulin | Blood glucose levels 1 h (healthy mice [3]): 1.762 ± 0.453 mmol/L | Blood glucose levels 2 h (healthy mice [3]): 2.463 ± 1.211 mmol/L | Blood glucose levels 0 h (healthy mice [3]): 5.411 ± 1.002 mmol/L | pKa [2]: 9.77 | EC50 (PPARγ): 30 ± 10 nM | Blood glucose levels 1 h (healthy mice [4]): 6.003 ± 1.876 mmol/L | Blood glucose levels 2 h (healthy mice [4]): 2.953 ± 0.876 mmol/L | Blood glucose levels 0 h (healthy mice [4]): 3.312 ± 0.301 mmol/L | Effect in glucose tolerance test (in words) (healthy mice [4]): good resistance activation to glucose | LD50 ± SD [5]: 2451.2 ± 1.24 mg/kg

SMILES: Cc1ccc(C(=O)NCCOc2ccc(CC3SC(=O)NC3=O)nc2)cc1 (stereo not drawn) [Compound 6f, N-(2-((6-((2,4-dioxothiazolidin-5-yl)methyl)pyridin-3-yl)oxy)ethyl)-4-methylbenzamide]
logP [1]: 2.56 | Cytotoxic effect (in words) (HUVEC cells): no obvious cytotoxic effect | Cell survival rate (HUVEC cells; 10^−2 mol l^−1): 89.6 ± 1.34% | Cell survival rate (HUVEC cells; 10^−3 mol l^−1): 98.3 ± 0.45% | Cell survival rate (HUVEC cells; 10^−4 mol l^−1): 99.2 ± 0.31% | Cell survival rate (HUVEC cells; 10^−5 mol l^−1): 99.8 ± 0.09% | Cell survival rate (HUVEC cells; 10^−6 mol l^−1): 100% | Effect in insulin tolerance test (in words) (healthy mice [3]): good resistance activation to insulin | Blood glucose levels 1 h (healthy mice [3]): 1.903 ± 0.611 mmol/L | Blood glucose levels 2 h (healthy mice [3]): 2.602 ± 1.143 mmol/L | Blood glucose levels 0 h (healthy mice [3]): 5.714 ± 1.465 mmol/L | pKa [2]: 9.65 | EC50 (PPARγ): 100 ± 100 nM | Blood glucose levels 1 h (healthy mice [4]): 6.651 ± 2.413 mmol/L | Blood glucose levels 2 h (healthy mice [4]): 4.121 ± 1.922 mmol/L | Blood glucose levels 0 h (healthy mice [4]): 3.216 ± 0.315 mmol/L | Effect in glucose tolerance test (in words) (healthy mice [4]): good resistance activation to glucose | LD50 ± SD [5]: 2013.6 ± 1.43 mg/kg

SMILES: Cc1ccc(C(=O)NCCOc2ccc(CC3SC(=O)NC3=O)cc2)nc1 (stereo not drawn) [Compound 6g, N-(2-(4-((2,4-dioxothiazolidin-5-yl)methyl)phenoxy)ethyl)-5-methylpicolinamide]
logP [1]: 2.83 | Cytotoxic effect (in words) (HUVEC cells): no obvious cytotoxic effect | Cell survival rate (HUVEC cells; 10^−2 mol l^−1): 90.5 ± 1.54% | Cell survival rate (HUVEC cells; 10^−3 mol l^−1): 98.6 ± 0.44% | Cell survival rate (HUVEC cells; 10^−4 mol l^−1): 99.8 ± 0.09% | Cell survival rate (HUVEC cells; 10^−5 mol l^−1): 100% | Cell survival rate (HUVEC cells; 10^−6 mol l^−1): 100% | Effect in insulin tolerance test (in words) (healthy mice [3]): good resistance activation to insulin | Blood glucose levels 1 h (healthy mice [3]): 1.843 ± 0.544 mmol/L | Blood glucose levels 2 h (healthy mice [3]): 2.566 ± 1.224 mmol/L | Blood glucose levels 0 h (healthy mice [3]): 5.613 ± 1.246 mmol/L | pKa [2]: 9.45 | EC50 (PPARγ): 80 ± 30 nM | Blood glucose levels 1 h (healthy mice [4]): 6.445 ± 2.220 mmol/L | Blood glucose levels 2 h (healthy mice [4]): 3.677 ± 1.730 mmol/L | Blood glucose levels 0 h (healthy mice [4]): 3.112 ± 0.279 mmol/L | Effect in glucose tolerance test (in words) (healthy mice [4]): good resistance activation to glucose | LD50 ± SD [5]: 2138.8 ± 1.36 mg/kg

EC50 (PPARα): 10600 ± 1860 nM | logP [1]: 2.01 | pKa [2]: 9.41 | EC50 (PPARγ): 280 ± 130 nM
SMILES: Cc1ccc(C(=O)NCCOc2ccc(CC3SC(=O)NC3=O)nc2)nc1 (stereo not drawn) [Compound 6h, N-(2-((6-((2,4-dioxothiazolidin-5-yl)methyl)pyridin-3-yl)oxy)ethyl)-5-methylpicolinamide]

SMILES: O=C1NC(=O)C(Cc2ccc(OCCNC(=O)c3ccc(O)cc3)cc2)S1 (stereo not drawn) [Compound 6i, N-(2-(4-((2,4-dioxothiazolidin-5-yl)methyl)phenoxy)ethyl)-4-hydroxybenzamide]
logP [1]: 2.8 | Cytotoxic effect (in words) (HUVEC cells): no obvious cytotoxic effect | Cell survival rate (HUVEC cells; 10^−2 mol l^−1): 92.1 ± 1.43% | Cell survival rate (HUVEC cells; 10^−3 mol l^−1): 98.8 ± 0.29% | Cell survival rate (HUVEC cells; 10^−4 mol l^−1): 99.9 ± 0.02% | Cell survival rate (HUVEC cells; 10^−5 mol l^−1): 100% | Cell survival rate (HUVEC cells; 10^−6 mol l^−1): 100% | Effect in insulin tolerance test (in words) (healthy mice [3]): good resistance activation to insulin | Blood glucose levels 1 h (healthy mice [3]): 1.792 ± 0.541 mmol/L | Blood glucose levels 2 h (healthy mice [3]): 2.501 ± 1.025 mmol/L | Blood glucose levels 0 h (healthy mice [3]): 5.592 ± 1.134 mmol/L | pKa [2]: 9.03 | EC50 (PPARγ): 70 ± 20 nM | Blood glucose levels 1 h (healthy mice [4]): 6.401 ± 2.112 mmol/L | Blood glucose levels 2 h (healthy mice [4]): 3.265 ± 1.236 mmol/L | Blood glucose levels 0 h (healthy mice [4]): 3.218 ± 0.317 mmol/L | Effect in glucose tolerance test (in words) (healthy mice [4]): good resistance activation to glucose | LD50 ± SD [5]: 2268.9 ± 1.25 mg/kg

logP [1]: 2.32 | pKa [2]: 8.66 | EC50 (PPARγ): 210 ± 110 nM
SMILES: O=C1NC(=O)C(Cc2ccc(OCCNC(=O)c3ccc(O)cn3)cc2)S1 (stereo not drawn) [Compound 6k, N-(2-(4-((2,4-dioxothiazolidin-5-yl)methyl)phenoxy)ethyl)-5-hydroxypicolinamide]

SMILES: CN(CCOc1ccc(CC2SC(=O)NC2=O)cc1)c1ccccn1 (stereo not drawn) [Rosiglitazone, reference compound]
Blood glucose levels 1 h (healthy mice [4]): 6.351 ± 2.004 mmol/L | Blood glucose levels 2 h (healthy mice [4]): 3.654 ± 1.232 mmol/L | Blood glucose levels 0 h (healthy mice [4]): 3.265 ± 0.345 mmol/L | LD50 ± SD [5]: 2246.1 ± 1.56 mg/kg
